Laboratory results taken from US4347319A, “Microbiological epoxidation process” (priority 1980, dated 1982).
Read-outs that look alike come from different tables or passages of the source.

Legend:
[1] = tested on: Methylomonas methanica (CRL M4P) NRRL B-11,205; test: Oxidation by washed cell suspensions of methane-grown cells; format: cell-based
Method in brief: (§1)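 First, strains were cultured aerobically on methane at 30 °C until turbid, then pelleted and washed in phosphate buffer (0.15 M, pH 7.0). Next, 2 mg cell portions were sealed under substrate plus oxygen (1:1) and shaken at 30 °C. Finally, withdrawn samples were analysed by gas chromatography.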

[2] = tested on: Methylococcus minimus (CRL 24 PM12) NRRL B-11,220; test: as above; format: cell-based
Method in brief: as §1

[3] = tested on: Methylomonas albus (CRL M8Y) NRRL B-11,207; test: as above; format: cell-based
Method in brief: as §1

[4] = tested on: Methylobacter chroococcum (CRL 23 PM8) NRRL B-11,215; test: as above; format: cell-based
Method in brief: as §1

[5] = tested on: Methylosinus sporium (CRL 16 PM2) NRRL B-11,203; test: as above; format: cell-based
Method in brief: as §1

[6] = biological target: T1, cell fractions of Methylosinus trichosporium (OB3b, NRRL B-11,196) (Methylosinus trichosporium, UniProt Q50541+Q9KX50+Q9KX51); format: biochemical; settings: for Conversion Rate: particulate P(40) fraction, n-propane to 2-propanol, n-butane to 2-butanol; for Oxidizing Activity (rate of oxidation) in cell fraction: propylene to propylene oxide, methane to methanol, 30° C.; for % Distribution in Cell Fraction: propylene-epoxidizing / methane-hydroxylating activity
T1 sequence (Q9KX50 40-431): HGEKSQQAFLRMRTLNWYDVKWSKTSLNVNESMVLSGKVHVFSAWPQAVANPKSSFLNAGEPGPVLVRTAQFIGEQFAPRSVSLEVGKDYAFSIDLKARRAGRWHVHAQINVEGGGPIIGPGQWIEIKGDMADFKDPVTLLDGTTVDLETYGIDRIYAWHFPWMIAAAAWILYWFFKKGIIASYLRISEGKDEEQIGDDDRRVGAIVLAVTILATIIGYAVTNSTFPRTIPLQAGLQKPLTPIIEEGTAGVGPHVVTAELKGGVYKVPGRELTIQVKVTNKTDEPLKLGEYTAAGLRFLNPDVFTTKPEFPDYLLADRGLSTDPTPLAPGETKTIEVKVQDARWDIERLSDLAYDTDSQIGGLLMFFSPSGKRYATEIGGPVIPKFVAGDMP
T1 sequence (Q50541 1-252): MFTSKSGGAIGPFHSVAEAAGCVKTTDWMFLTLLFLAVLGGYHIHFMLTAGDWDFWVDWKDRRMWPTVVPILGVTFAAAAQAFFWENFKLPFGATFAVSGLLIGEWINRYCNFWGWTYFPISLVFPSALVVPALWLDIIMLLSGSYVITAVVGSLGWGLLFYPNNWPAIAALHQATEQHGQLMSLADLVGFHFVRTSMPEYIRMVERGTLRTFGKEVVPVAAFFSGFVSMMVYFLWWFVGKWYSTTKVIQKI
T1 sequence (Q9KX51 1-256): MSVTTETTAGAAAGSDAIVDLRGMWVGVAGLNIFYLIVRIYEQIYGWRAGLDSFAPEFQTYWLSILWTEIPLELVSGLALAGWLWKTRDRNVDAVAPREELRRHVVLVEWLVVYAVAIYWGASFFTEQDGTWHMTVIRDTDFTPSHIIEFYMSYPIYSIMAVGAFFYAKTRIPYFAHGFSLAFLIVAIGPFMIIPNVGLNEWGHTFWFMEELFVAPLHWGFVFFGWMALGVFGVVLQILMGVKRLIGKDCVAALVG
Method: Cells were washed twice with 25 mM potassium phosphate buffer, pH 7.0 containing 5 mM MgCl2. Cells were suspended in the same buffer. The cell suspensions at 4° C. were disintegrated by a single passage through a French Pressure cell (15,000 lb./in.^2) and centrifuged at 5000×g. for 15 min. to remove unbroken bacteria. The supernatant solution (crude extract) was then centrifuged at 40,000×g. for 30 min., yielding particulate P(40) and soluble S(40) fractions. The S(40) fraction was subsequently centrifuged at 80,000×g. for 60 min., yielding particulate P(80) and soluble S(80) fractions. The particulate fractions [P(40) and P(80)] were suspended in 25 mM potassium phosphate buffer, pH 7.0, containing 5 mM MgCl2 and homogenized at 4° C.
The oxidation of methane and propylene by particulate [(P)40 and (P)80] fractions and soluble [S(80)] fraction was measured at 30° C. by estimating the production of methanol and propylene oxide, respectively. The reaction mixtures contained in […]: 150 mM potassium phosphate buffer, pH 7.0 containing 5 mM MgCl2 b, 0.6 ml; 10μ moles NADH, and cellular fraction.
Reaction mixtures were contained in 10 ml vials at 4° C. Vials were sealed with rubber caps. The gaseous phase in the vials was removed using vacuum and then was replaced with a gas mixture of methane or propylene and oxygen at a 1:1, v/v ratio. Oxidation of other gaseous n-alkanes and n-alkanes was examined as described above. For liquid substrates, 10 μl of substrate was used directly.
The products of epoxidation of n-alkenes and hydroxylation of n-alkanes were assayed by flame ionization gas chromatography using a stainless steel column (12'×1/8") packed with 10% Carbowax 20 M on 80/100 Chromosorb W and Porapak Q column. The column temperature was maintained isothermally at 120° C. The carrier gas flow rate was 30 ml/min. of helium. The various products were identified by retention time comparisons and co-chromatography with authentic standards.
Specific activities were expressed as μ moles of products formed per hour per mg. protein. Concentrations of protein in various fractions were determined by the method of Lowry et al., J. Biol. Chem., 193: 265-275 (1951).

[7] = methane-grown washed cells, 30° C., methane to methanol, alkene to 1,2-epoxide

CCC(C)O (stereo not drawn) [2-Butanol]
Conversion Rate to Ketone, 2 hrs. [1]: 0.06 μmole/2 mg protein
Conversion Rate to Ketone, 20 hrs. [1]: 2 μmole/2 mg protein

C=CC=C [Butadiene]
Oxidative Conversion Rates [1, 7]: 1.0 μmole/hr/mg protein
Oxidative Conversion Rates [2, 7]: 3.0 μmole/hr/mg protein
Oxidative Conversion Rates [3, 7]: 3.0 μmole/hr/mg protein
Oxidative Conversion Rates [4, 7]: 1.8 μmole/hr/mg protein
Oxidative Conversion Rates [5, 7]: 2.5 μmole/hr/mg protein

CCCC [Butane]
Conversion Rate [6]: 0.79 μmoles/hr/2.0mg. of protein

C [Methane]
Oxidative Conversion Rates [1]: 2.3
Oxidative Conversion Rates [2]: 2.3
Oxidative Conversion Rates [3]: 1.5
Oxidative Conversion Rates [4]: 0.72
Oxidative Conversion Rates [5]: 1.0
Oxidizing Activity (rate of oxidation) in cell fraction ([6]; P(40)): 3.1 μ moles of products formed per
% Distribution in Cell Fraction ([6]; P(40)): 83%
Oxidizing Activity (rate of oxidation) in cell fraction ([6]; P(80)): 3.0 μ moles of products formed per
% Distribution in Cell Fraction ([6]; P(80)): 13%

CCC [Propane]
Conversion Rate [6]: 1.32 μmoles/hr/2.0mg. of protein

C=CC [Propylene]
Oxidative Conversion Rates [1, 7]: 3.8 μmole/hr/mg protein
Oxidative Conversion Rates [2, 7]: 1.8 μmole/hr/mg protein
Oxidative Conversion Rates [3, 7]: 2.5 μmole/hr/mg protein
Oxidative Conversion Rates [4, 7]: 2.5 μmole/hr/mg protein
Oxidative Conversion Rates [5, 7]: 3.2 μmole/hr/mg protein
Oxidizing Activity (rate of oxidation) in cell fraction ([6]; P(40)): 2.8 μ moles of products formed per
% Distribution in Cell Fraction ([6]; P(40)): 82%
Oxidizing Activity (rate of oxidation) in cell fraction ([6]; P(80)): 2.5 μ moles of products formed per
% Distribution in Cell Fraction ([6]; P(80)): 18%
